{"source": "patent US9605047B2", "about": "“Compositions and methods for treating hypertension” (The Brigham and Women's Hospital, Inc., priority 2012, dated 2017)", "key": {"[1]": {"target": "T1, ETB cysteinyl thiols (region containing Cys405) (Homo sapiens, UniProt P24530)", "T1 construct": "endogenous in cells; host or cells: HPAECs (Lonza)", "T1 sequence (P24530 27-442)": "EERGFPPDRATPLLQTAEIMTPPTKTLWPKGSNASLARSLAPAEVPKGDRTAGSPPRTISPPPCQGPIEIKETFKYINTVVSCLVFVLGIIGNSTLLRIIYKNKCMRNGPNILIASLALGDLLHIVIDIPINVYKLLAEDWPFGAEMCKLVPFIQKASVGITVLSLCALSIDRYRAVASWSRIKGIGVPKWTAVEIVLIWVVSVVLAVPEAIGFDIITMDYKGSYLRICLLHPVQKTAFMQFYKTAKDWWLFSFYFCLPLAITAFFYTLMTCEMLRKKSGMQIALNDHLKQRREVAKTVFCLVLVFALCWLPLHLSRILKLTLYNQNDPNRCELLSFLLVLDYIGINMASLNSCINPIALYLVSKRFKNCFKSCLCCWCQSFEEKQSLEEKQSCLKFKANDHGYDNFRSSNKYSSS", "test": "Western analysis to detect ETB disulfide bond formation in HPAECs", "assay_type": "cell-based", "conditions": "aldosterone 10^−7 mol/L 24 h or H2O2 200 μmol/L 20 min", "method": "Western analysis to detect ETB disfulfide bond formation. Western analysis to detect ETB disulfide bond formation was performed as described previously.^7 Briefly, protein extracts from cells were lysed in alkylating buffer containing 0.1 M Tris-HCL, pH 6.8, 1% SDS, 100 mM iodoacetamide, and 100 mM N-ethylmaleimide, and sonicated on ice for 5 min followed by a 30-min incubation at 25° C. Alkylated proteins were then precipitated with acetone. Proteins were resuspended in 50 μl of 0.1 M Tris-HCl, pH 7.4, 1% SDS; and disulfides were reduced with 5 mM tris(2-carboxyethyl)phosphine hydrochloride (TCEP). Following a 20-min incubation at 25° C., TCEP was removed with a Micro Bio-Spin™ column 6 (Bio-Rad), and 1% SDS was added to the eluant. The cysteines previously participating in a disulfide bond, now reduced, were labeled with 1 mM polyethylene glycol-conjugated maleimide (molecular mass 10 kDa) (Fluka). After a 1-h incubation at 25° C., proteins were precipitated with acetone, resuspended in 50 μl of non-reducing SDS electrophoresis buffer, and boiled for 10 min. Protein samples were then size-fractionated electrophoretically using SDS-PAGE, and transferred to a polyvinylidene fluoride membrane. […]"}, "[2]": {"system": "ETB region containing Cys405", "test": "ETB sulfenic acid (R-SOH) by immunoprecipitation and immunoblot in HPAECs", "assay_type": "cell-based, human", "conditions": "aldosterone 10^−7 mol/L, 24 h, vs V, n=3", "method": "Co-immunoprecipitation of proteins. Cell monolayers were washed twice with ice-cold PBS and incubated on ice with RIPA buffer supplemented with various protease inhibitors (Millpore). Cells were scraped with a rubber policeman and samples were rotated at 4° C. for 15 min. Lysates were centrifuged at 14,000×g at 4° C. for 15 min and the then pre-cleared with a 50% slurry of Protein G agarose beads (Santa Cruz Biotechnology) mixed with PBS. Following removal of the beads by centrifugation, cell lysates were incubated with an anti-ETB or anti-PGC-1α antibody (Santa Cruz Biotechnology) overnight at 4° C. The immunocomplex was captured by incubating lysates with 50% Protein G agarose bead slurry at 4° C. for 1 h. Beads were collected by pulse centrifugation, resuspended in non-reducing sample buffer, and then boiled for 10 min to dissociate the immunocomplex from the beads. Western analysis was performed with an anti-SF (Santa Cruz) or anti-sulfenic acid (R—SOH) antibody (Millpore) as described above."}, "[3]": {"system": "ETA, ETB, eNOS", "test": "ETA, ETB and eNOS protein levels in HPAECs by Western analysis", "assay_type": "cell-based, human", "method": "Immunoblotting. Proteins were size fractionated electrophoretically using SDS-PAGE and transferred to polyvinylidene fluoride membranes. The membranes were incubated with anti-ETA (Santa Cruz Biotechnology), anti-ETB (Santa Cruz Biotechnology), anti-NOX4 (Santa Cruz Biotechnology), anti-[…]^phox (Santa Cruz), anti-eNOS (Cell Signaling), anti-PGC-1α (Santa Cruz Biotechnology), and anti-SF (Santa Cruz Biotechnology) antibodies overnight at 4° C. and visualized using the ECL detection system (Amersham Biosciences). In experiments to assess ETA expression, purified ETA protein (Novus Biological) was loaded to serve as an internal control."}, "[4]": {"system": "ETB-dependent NO. generation in HPAECs", "test": "NO. metabolites (NO2−, NO3−) in ET-1-stimulated HPAECs", "assay_type": "cell-based, human", "conditions": "n=3", "description": "Cell culture and treatments. Human pulmonary artery endothelial cells (HPAECs) (Lonza) (male donors) were grown to confluence using phenol-free EGM-2 medium supplemented with 5% fetal bovine serum at 37° C., 5% CO2. Cells were passaged twice-weekly using 0.5% trypsin/EDTA, and experiments were performed on cells from passages 4-10. Aldosterone (Steraloids) and ET-1 (1-100 nM) (Sigma-Aldrich) were dissolved in dimethylsufloxide (10 nmol/L) and deoxygenated water, respectively, which served as vehicle controls. Cells were treated with aldosterone (10^−−10^−7 mol/L) for 24 h and in selected experiments co-incubated with the mineralocorticoid receptor inhibitor spironolactone (10 μM/l) (Sigma-Aldrich).\nNO. metabolites. Nitrite (NO2^−) and nitrate (NO3^−) were measured in cell culture medium containing 2% fetal bovine serum and L-arginine (1 mmol/l) (Sigma-Aldrich) by 1(H)-naphthotriazole fluorescence (Cayman) as previously reported.^1 To measure NO2^− levels in whole lung tissue, lung specimens were harvested from rats and snap frozen in liquid nitrogen."}, "[5]": {"system": "eNOS", "test": "eNOS activity ([14C] arginine, NOS activity kit) in HPAECs", "assay_type": "cell-based, human", "conditions": "ET-1 (10 nM) stimulated HPAECs, without or with aldosterone; n=3", "method": "eNOS activity. eNOS activity was measured using the NOS activity kit (Cayman) according to the manufacturer's instructions with some modifications. Cells were washed with PBS containing 1 mM EDTA, transferred to a microcentrifuge tube, and centrifuged at 14,000×g at 4° C. for 2 min. The supernatant was decanted and homogenization buffer (250 mM Tris-HCl, pH 7.4, 6 μM BH4, 2 μM flavin adenine dinucleotide, and 2 μM flavin adenine mononucleotide) was added to the cell pellets. […] The samples were then centrifuged at 14,000×g for 30 seconds and radioactivity of the eluant was quantified in a liquid scintillation counter (Beckman-Coulter)."}, "[6]": {"system": "HPAECs", "test": "Amplex Red assay of hydrogen peroxide levels in HPAECs", "assay_type": "cell-based, human", "conditions": "aldosterone 10^−7 mol/L, 24 h, HPAECs; vs V 65.4±1.6; n=3", "description": "Human pulmonary artery endothelial cells (HPAECs) (Lonza) (male donors) were grown to confluence using phenol-free EGM-2 medium supplemented with 5% fetal bovine serum at 37° C., 5% CO2. Cells were passaged twice-weekly using 0.5% trypsin/EDTA, and experiments were performed on cells from passages 4-10. Aldosterone (Steraloids) and ET-1 (1-100 nM) (Sigma-Aldrich) were dissolved in dimethylsufloxide (10 nmol/L) and deoxygenated water, respectively, which served as vehicle controls. Cells were treated with aldosterone (10^−−10^−7 mol/L) for 24 h and in selected experiments co-incubated with the mineralocorticoid receptor inhibitor spironolactone (10 μM/l) (Sigma-Aldrich)."}, "[7]": {"system": "NOX4 and NOX4 subunit p22^phox", "test": "NOX4 and p22phox protein levels in HPAECs by Western analysis", "assay_type": "cell-based, human", "conditions": "n=3", "method": "Cell culture and treatments. Human pulmonary artery endothelial cells (HPAECs) (Lonza) (male donors) were grown to confluence using phenol-free EGM-2 medium supplemented with 5% fetal bovine serum at 37° C., 5% CO2. Cells were passaged twice-weekly using 0.5% trypsin/EDTA, and experiments were performed on cells from passages 4-10. Aldosterone (Steraloids) and ET-1 (1-100 nM) (Sigma-Aldrich) were dissolved in dimethylsufloxide ([…]) and deoxygenated water, respectively, which served as vehicle controls. Cells were treated with aldosterone (10^−−10^−7 mol/L) for 24 h and in selected experiments co-incubated with the mineralocorticoid receptor inhibitor spironolactone (10 μM/l) (Sigma-Aldrich).\nImmunoblotting. Proteins were size fractionated electrophoretically using SDS-PAGE and transferred to polyvinylidene fluoride membranes. The membranes were incubated with anti-ETA (Santa Cruz Biotechnology), anti-ETB (Santa Cruz Biotechnology), anti-NOX4 (Santa Cruz Biotechnology), anti-p22P^phox (Santa Cruz), anti-eNOS (Cell Signaling), anti-PGC-1α (Santa Cruz Biotechnology), and anti-SF (Santa Cruz Biotechnology) antibodies overnight at 4° C. and visualized using the ECL detection system (Amersham Biosciences). In experiments to assess ETA expression, purified ETA protein (Novus Biological) was loaded to serve as an internal control."}, "[8]": {"system": "HPAECs", "test": "3-Nitrotyrosine immunohistochemistry in HPAECs", "assay_type": "cell-based, human", "conditions": "V 24.1±3.3, n=5", "method": "3-Nitrotyrosine immunohistochemistry. Cells grown to confluence on glass chamber slides were fixed following treatments and anti-3-nitrotyrosine immunohistochemistry (Santa Cruz Biotechnology) was performed using the 3,3′-diaminobenzidine substrate method (Vector laboratories) as described previously.^1"}, "[9]": {"conditions": "aldosterone 10^−7 mol/L, 24 h, HPAECs"}}, "data": [{"compound": "C[C@]12CCC(=O)C=C1CC[C@@H]1[C@@H]2[C@@H](O)C[C@]2(C=O)[C@@H](C(=O)CO)CC[C@@H]12", "note": "[aldosterone]", "values": [{"measurement": "ETB disulfide bond formation (bands at 70 kDa and 90 kDa)", "setting": "[1]", "result": "de novo formation of one or two disulfide bonds"}, {"measurement": "increase in ETB-SOH protein expression levels", "setting": "[2]", "result": 639, "unit": "%"}, {"measurement": "expression of ETA", "setting": "[3]; [9]", "result": "Without influencing protein expression of ETB, or inducing"}, {"measurement": "protein expression of ETB", "setting": "[3]; [9]", "result": "Without influencing"}, {"measurement": "eNOS protein levels", "setting": "[3]; aldosterone-treated HPAECs", "result": "Without influencing"}, {"measurement": "total NO. metabolite (NOx: NO2^−+NO3^−) formation", "setting": "[4]; ET-1 (10 nM) stimulated HPAECs, without or with aldosterone", "result": "103.4±12.2", "unit": "μM/μg protein"}, {"measurement": "decrease in ETB-mediated NO2^− levels", "setting": "[4]; aldosterone 10^−7 mol/L, 24 h, then ET-1 10 nM, HPAECs", "result": 60.3, "unit": "%"}, {"measurement": "decrease in NO2^−/NO3^− ratio", "setting": "[4]; aldosterone in ET-1-stimulated HPAECs", "result": 62, "unit": "%"}, {"measurement": "eNOS activity", "setting": "[5]", "result": "7.6±2.4 [^14C] L-citrulline c.p.m./μg protein"}, {"measurement": "H2O2 accumulation", "setting": "[6]", "result": "100.6±3.5", "unit": "μM/mg protein"}, {"measurement": "protein levels of NOX4", "setting": "[7]; aldosterone 10^−7 mol/L", "result": "157.0±4.4", "unit": "% control"}, {"measurement": "protein levels of p22^phox", "setting": "[7]; aldosterone 10^−7 mol/L", "result": "829.5±295.6", "unit": "% control"}, {"measurement": "protein levels of NOX4", "setting": "[7]; aldosterone 10^−8 mol/L", "result": "146.3±12.4", "unit": "% control"}, {"measurement": "protein levels of p22^phox", "setting": "[7]; aldosterone 10^−8 mol/L", "result": "961±226.2", "unit": "% control"}, {"measurement": "protein levels of NOX4", "setting": "[7]; aldosterone 10^−9 mol/L", "result": "134.6±16.5", "unit": "% control"}, {"measurement": "protein levels of p22^phox", "setting": "[7]; aldosterone 10^−9 mol/L", "result": "1009.4±167.0", "unit": "% control"}, {"measurement": "levels of 3-nitrotyrosine", "setting": "[8]", "result": "46.8±6.6", "unit": "arb. units"}]}]}
